# Assay results reported in patent US20060046968A1, “Prodrug substituted benzoxazoles as estrogenic agents” (priority 2004, published 2006).
# Assays:
# Type in all cases: in vivo
# [1] = system: Sexually immature 129 SvE mice; experiment: Mouse uterotrophic test procedure (Procedure 2); settings: compound 20 mg/kg s.c., days 22-25
# Male HLA-B27 rats [2] = experiment: HLA-B27 rat model of arthritis: joint histology; settings: Study 1; oral 46 days; 10 mg/kg days 1-18, then 20 mg/kg
# Experimental: At the end of the study, the rats are euthanized with CO2, hindlimbs removed at necropsy and fixed in 10% buffered formalin, and the tarsal joints decalcified and embedded in paraffin. Histologic sections are stained with Hematoxylin and Eosin or […] Green stain. Slides are coded so that the examiner is blinded to the treatment groups. Synovial tissue from tarsal joints is evaluated based on synovial hyperplasia, inflammatory cell infiltration, and pannus formation [Poole and Coombs, International Archives of Allergy & Applied Immunology 54: 97-113 (1977)], as outlined below. [table] […] [table] Representative metabolites of compounds of the invention were evaluated in the HLA-B27 rat standard pharmacological test procedure, which emulates arthritis in humans. The following briefly describes the procedure used and results obtained. Male HLA-B27 rats were obtained from Taconic and provided unrestricted access to a food (PMI® LabDiet 5001) and water. Joint scores and histology were evaluated as described above for the Lewis rat model of adjuvant-induced arthritis. Study 1: […]
# Male HLA-B27 rats [3] = experiment: HLA rat test for inflammatory bowel disease: stool character (3 = diarrhea; 2 = soft stool; 1 = normal stool); settings: Study C
# [4] = system: Sexually immature Sprague-Dawley rats; experiment: Rat uterotrophic test procedure (Procedure 1); settings: compound 2 mg/rat + 17α-ethinyl, 17β-estradiol 0.06 μg/rat s.c. (antagonist mode)
# Male HLA-B27 rats [5] = experiment: HLA-B27 rat test for inflammatory bowel disease: histological scoring of colon; settings: Study C
# Experimental: Representative metabolites of compounds of the invention were evaluated in the HLA rat standard pharmacological test procedure, which emulates inflammatory bowel disease in humans. The following briefly describes the procedure used and results obtained. […] Louis) and water. Stool quality was observed daily and graded according to the following scale: Diarrhea=3; soft stool=2; normal stool=1. At the end of the study, serum was collected and stored at −70° C. A section of colon was prepared for histological analysis and an additional segment was analyzed for myeloperoxidase activity. In Study A, rats (22-26 weeks old) were dosed subcutaneously once per day for seven days with one of the regimens listed below. […] Histological analysis. Colonic tissue was immersed in 10% neutral buffered formalin. Each specimen of colon was separated into four samples for evaluation. The formalin-fixed tissues were processed in a Tissue-Tek® vaccum infiltration processor (Miles, Inc; West Haven, Conn.) for paraffin embedding. The samples were sectioned at 5 μm and then stained with hematoxylin and eosin (H&E) for blinded histological evaluations using a scale modified after Boughton-Smith. After the scores were completed, the samples were unblinded, and data were tabulated and analyzed by ANOVA linear modeling with multiple mean comparisons. Sections of colonic tissue were evaluated for several disease indicators and given relative scores.
# Male HLA-B27 rats [6] = experiment: HLA-B27 rat model of arthritis: joint scores; settings: Study 1, oral 20 mg/kg once per day (10 mg/kg earlier)
# [7] = system: ovariectomized Sprague-Dawley rats; experiment: Bone mineral density in the ovariectomized rat (pQCT, proximal tibia); settings: compound 10 mg/kg s.c.; 5 weeks
# [8] = oral 7 weeks, 10 mg/kg days 1-18, then 20 mg/kg
structure (smiles),measurement,setting,value
"Oc1cc(Br)c2oc(-c3ccc(O)c(F)c3)nc2c1 [Example 21, 7-BROMO-2-(3-FLUORO-4-HYDROXYPHENYL)-1,3-BENZOXAZOL-5-OL]",mean uterine weight ± SEM,[1],12.1 ± 1.7 mg
same,Mankin score (mean ± SD),Male HLA-B27 rats [2],4.6 ± 0.9
same,Synovitis score (mean ± SD),Male HLA-B27 rats [2],6.1 ± 0.75
same,Stool Character (group's average score),"Male HLA-B27 rats [3]; oral 10 mg/kg once per day, Day 1",2.75
same,Stool Character (group's average score),"Male HLA-B27 rats [3]; oral 10 mg/kg once per day, Day 3",2.75
same,Stool Character (group's average score),"Male HLA-B27 rats [3]; oral 10 mg/kg once per day, Day 4",2.75
same,Stool Character (group's average score),"Male HLA-B27 rats [3]; oral 10 mg/kg once per day, Day 5",2.75
same,Stool Character (group's average score),"Male HLA-B27 rats [3]; oral 10 mg/kg once per day, Day 6",2.5
same,Stool Character (group's average score),"Male HLA-B27 rats [3]; oral 10 mg/kg once per day, Day 7",2.5
same,Stool Character (group's average score),"Male HLA-B27 rats [3]; oral 10 mg/kg once per day, Day 8",2.75
same,Stool Character (group's average score),"Male HLA-B27 rats [3]; oral 10 mg/kg once per day, Day 9",2.5
same,Stool Character (group's average score),"Male HLA-B27 rats [3]; oral 10 mg/kg once per day, Day 10",2.75
same,Stool Character (group's average score),"Male HLA-B27 rats [3]; oral 10 mg/kg once per day, Day 11",2.5
same,Stool Character (group's average score),"Male HLA-B27 rats [3]; oral 10 mg/kg once per day, Day 12",2.5
same,Stool Character (group's average score),"Male HLA-B27 rats [3]; oral 10 mg/kg once per day, Day 13",2.5
same,Stool Character (group's average score),"Male HLA-B27 rats [3]; oral 10 mg/kg once per day, Day 14",2.5
same,Stool Character (group's average score),"Male HLA-B27 rats [3]; oral 10 mg/kg once per day, Day 15",2.5
same,Stool Character (group's average score),"Male HLA-B27 rats [3]; oral 10 mg/kg once per day, Day 16",2.5
same,Stool Character (group's average score),"Male HLA-B27 rats [3]; oral 10 mg/kg once per day, Day 17",2.5
same,Stool Character (group's average score),"Male HLA-B27 rats [3]; oral 10 mg/kg once per day, Day 18",2.5
same,Stool Character (group's average score),"Male HLA-B27 rats [3]; oral 20 mg/kg once per day (10 mg/kg days 1-18), Day 19",2.75
same,Stool Character (group's average score),"Male HLA-B27 rats [3]; oral 20 mg/kg once per day (10 mg/kg days 1-18), Day 20",2.5
same,Stool Character (group's average score),"Male HLA-B27 rats [3]; oral 20 mg/kg once per day (10 mg/kg days 1-18), Day 21",2.75
same,Stool Character (group's average score),"Male HLA-B27 rats [3]; oral 20 mg/kg once per day (10 mg/kg days 1-18), Day 22",2.5
same,Stool Character (group's average score),"Male HLA-B27 rats [3]; oral 20 mg/kg once per day (10 mg/kg days 1-18), Day 23",2.25
same,Stool Character (group's average score),"Male HLA-B27 rats [3]; oral 20 mg/kg once per day (10 mg/kg days 1-18), Day 24",1.75
same,Stool Character (group's average score),"Male HLA-B27 rats [3]; oral 20 mg/kg once per day (10 mg/kg earlier), Day 25",2
same,Stool Character (group's average score),"Male HLA-B27 rats [3]; oral 20 mg/kg once per day (10 mg/kg earlier), Day 26",2
same,Stool Character (group's average score),"Male HLA-B27 rats [3]; oral 20 mg/kg once per day (10 mg/kg earlier), Day 27",2
same,Stool Character (group's average score),"Male HLA-B27 rats [3]; oral 20 mg/kg once per day (10 mg/kg earlier), Day 28",2
same,Stool Character (group's average score),"Male HLA-B27 rats [3]; oral 20 mg/kg once per day (10 mg/kg earlier), Day 29",2
same,Stool Character (group's average score),"Male HLA-B27 rats [3]; oral 20 mg/kg once per day (10 mg/kg earlier), Day 30",2.25
same,Stool Character (group's average score),"Male HLA-B27 rats [3]; oral 20 mg/kg once per day (10 mg/kg earlier), Day 31",2.25
same,Stool Character (group's average score),"Male HLA-B27 rats [3]; oral 20 mg/kg once per day (10 mg/kg earlier), Day 32",2
same,Stool Character (group's average score),"Male HLA-B27 rats [3]; oral 20 mg/kg once per day (10 mg/kg earlier), Day 33",1.5
same,Stool Character (group's average score),"Male HLA-B27 rats [3]; oral 20 mg/kg once per day (10 mg/kg earlier), Day 34",1.75
same,Stool Character (group's average score),"Male HLA-B27 rats [3]; oral 20 mg/kg once per day (10 mg/kg earlier), Day 35",1.5
same,Stool Character (group's average score),"Male HLA-B27 rats [3]; oral 20 mg/kg once per day (10 mg/kg earlier), Day 36",1.75
same,Stool Character (group's average score),"Male HLA-B27 rats [3]; oral 20 mg/kg once per day (10 mg/kg earlier), Day 37",1.5
same,Stool Character (group's average score),"Male HLA-B27 rats [3]; oral 20 mg/kg once per day (10 mg/kg earlier), Day 38",1.5
same,Stool Character (group's average score),"Male HLA-B27 rats [3]; oral 20 mg/kg once per day (10 mg/kg earlier), Day 39",2
same,Stool Character (group's average score),"Male HLA-B27 rats [3]; oral 20 mg/kg once per day (10 mg/kg earlier), Day 40",1.75
same,Stool Character (group's average score),"Male HLA-B27 rats [3]; oral 20 mg/kg once per day (10 mg/kg earlier), Day 41",2
same,Stool Character (group's average score),"Male HLA-B27 rats [3]; oral 20 mg/kg once per day (10 mg/kg earlier), Day 42",2
same,Stool Character (group's average score),"Male HLA-B27 rats [3]; oral 20 mg/kg once per day (10 mg/kg earlier), Day 43",2
same,Stool Character (group's average score),"Male HLA-B27 rats [3]; oral 20 mg/kg once per day (10 mg/kg earlier), Day 44",2
same,Stool Character (group's average score),"Male HLA-B27 rats [3]; oral 20 mg/kg once per day (10 mg/kg earlier), Day 45",2
same,Stool Character (group's average score),"Male HLA-B27 rats [3]; oral 20 mg/kg once per day (10 mg/kg earlier), Day 46",2
same,mean uterine weight ± SEM,[4],93.9 ± 5.9 mg
same,Scores on all disease parameters versus vehicle,Male HLA-B27 rats [5]; oral,"although not statistically significant, were lower than corresponding scores from vehicle-treated rats"
same,"Fibrosis (0-2), mean ± SD",Male HLA-B27 rats [5]; [8],0.56 ± 0.32
same,"Inflammation (0-3), mean ± SD",Male HLA-B27 rats [5]; [8],2.06 ± 0.43
same,"Lesion depth (0-2), mean ± SD",Male HLA-B27 rats [5]; [8],0.75 ± 0.50
same,"Total score, mean ± SD",Male HLA-B27 rats [5]; [8],4.19 ± 1.74
same,"Ulceration (0-2), mean ± SD",Male HLA-B27 rats [5]; [8],0.81 ± 0.47
same,Joint inflammation score,Male HLA-B27 rats [6]; Day 29,0.75
same,Joint inflammation score,Male HLA-B27 rats [6]; Day 30,1.75
same,Joint inflammation score,Male HLA-B27 rats [6]; Day 31,1.25
same,Joint inflammation score,Male HLA-B27 rats [6]; Day 32,0.75
same,Joint inflammation score,Male HLA-B27 rats [6]; Day 33,1
same,Joint inflammation score,Male HLA-B27 rats [6]; Day 34,1.25
same,Joint inflammation score,Male HLA-B27 rats [6]; Day 35,2.25
same,Joint inflammation score,Male HLA-B27 rats [6]; Day 36,1
same,Joint inflammation score,Male HLA-B27 rats [6]; Day 37,4
same,Joint inflammation score,Male HLA-B27 rats [6]; Day 38,1.5
same,Joint inflammation score,Male HLA-B27 rats [6]; Day 39,1.5
same,Joint inflammation score,Male HLA-B27 rats [6]; Day 40,2.25
same,Joint inflammation score,Male HLA-B27 rats [6]; Day 41,2.25
same,Joint inflammation score,Male HLA-B27 rats [6]; Day 42,1.5
same,Joint inflammation score,Male HLA-B27 rats [6]; Day 43,1.25
same,Joint inflammation score,Male HLA-B27 rats [6]; Day 44,1
same,Joint inflammation score,Male HLA-B27 rats [6]; Day 45,2.5
same,Joint inflammation score,Male HLA-B27 rats [6]; Day 46,2
same,Total Bone Mineral Density (mean ± SEM),[7],501.40 ± 11.97 mg/mL
same,Trabecular Bone Mineral Density (mean ± SEM),[7],312.34 ± 19.73 mg/mL
